Tested on: HEK 293 cells
Experiment: EGFR transactivation (EGFR-GFP internalization, confocal microscopy), untransfected/mock HEK 293 cells
Assay type: cell-based
Details: HEK 293, 30 min
Procedure: Figure 7 UT-pepducins-mediated transactivation of EGFR following hUT activation. […] EGFR internalization, following hUT stimulation with various ligands for 30 min, was visualized using confocal microscopy. The images shown are from representative experiments repeated at least three times.
HEK 293 and HEK 293-hUT cells, transiently transfected with cDNA encoding fluorescently labeled EGFR (EGFR-GFP) (2 μg), were plated onto 35-mm glass-bottomed culture dishes (MatTek Corp). Following stimulation, cells were washed once with PBS and fixed in 4% paraformaldehyde for 15 min. To study the involvement of Gq in EGFR internalization, cells were treated with YM254890 (100 nM) for 1h prior peptide treatments. […] EGFR-GFP internalization was visualized using a combination of excitation (488 nm) and emission filters (499 and 520 nm). […]
endogenously expressed hUT activation in untransfected HEK 293 cells.HEK 293 expressing low level of wild type hUT and transfected […]
using confocal microscopy. The image shown are from representative experiments repeated at least three times. Arrows indicate cellular aggregates representing EGFR internalization.
(1 picture or pasted object on this page, not shown here)

## CC(C)[C@H](NC(=O)[C@@H]1CSSC[C@H](NC(=O)[C@H](CC(=O)O)NC(=O)[C@@H]2CCCN2C(=O)[C@@H](NC(=O)[C@@H](N)CCC(=O)O)[C@@H](C)O)C(=O)N[C@@H](Cc2ccccc2)C(=O)N[C@@H](Cc2c[nH]c3ccccc23)C(=O)N[C@@H](CCCCN)C(=O)N[C@@H](Cc2ccc(O)cc2)C(=O)N1)C(=O)O [hUII, urotensin II, reference compound]
  EGFR internalization in untransfected/mock-transfected cells: limited EGFR internalization can be observed in untransfected HEK 293 cells

From PMC8424217 (The Journal of Biological Chemistry, 2021)
